From patent US8344028B2, “Gamma-amino-butyric acid derivatives as GABAB receptor ligands” (XenoPort, Inc., priority 2009, dated 2013)
pEC50, pIC50: −log10 of the molar value. Structures can show the parent of a compound that is named as a salt.

Columns and labels:
[1] = test system: S. murinus (house musk shrew); conditions: subcutaneously 30 minutes prior to challenge at 1, 3, and 10 mg/kg; reduced from about 23; cited from earlier work
[2] = test system: GABAB(1)+/- and GABAB(1)+/+ mice; conditions: 9.6 mg/kg, cited from earlier work
[3] = Bioavailability following oral administration to rats; conditions: rat, in vivo
Procedure: Rats were obtained commercially and were pre-cannulated in the jugular vein. Animals were conscious at the time of the experiment. All animals were fasted overnight and until 4 hours post-dosing of a compound.
Rat blood samples (0.3 mL/sample) were collected from all animals prior to dosing and at different time-points up to 24 h post-dose into tubes containing EDTA. Two aliquots (100 μL each) were quenched with 300 μL methanol and stored at −20° C. prior to analysis.
To prepare analysis standards, 90 μL of rat blood was quenched with 300 μL methanol followed by 10 μL of spiking standard and/or 20 μL of internal standard. The sample tubes were vortexed for at least 2 min and then centrifuged at 3400 rpm for 20 min. The supernatant was then transferred to an injection vial or plate for analysis by LC-MS-MS.
To prepare samples for analysis, 20 μL of internal standard was added to each quenched sample tube. The sample tubes were vortexed for at least 2 min and then centrifuged at 3400 rpm for 20 min. The supernatant was then transferred to an injection vial or plate for analysis by LC-MS-MS.
LC/MS/MS analysis was performed using an API 2000 or API 4000 mass spectrometer equipped with a Shimadzu and or Agilent HPLC system are used for determination concentration of compounds in rat blood. A Varian Polaris C18, 3μ 50×4.6 mm column was used. 0.1% Formic acid in water and acetonitrile were applied as the mobile phase. Runs were 4.0 min. […] L-4-Chlorophenylalanine was used as an internal standard at m/z 200.00/154.00.
Non-compartmental analysis was performed using WinNonlin software (v.3.1 Professional Version, Pharsight Corporation, Mountain View, Calif.) on individual animal profiles. […]
The oral bioavailability (F %) of a compound was determined by comparing the area under the compound concentration vs time curve (AUC) following oral administration of a prodrug of a GABAB ligand with the AUC of the compound concentration vs time curve following intravenous administration of the GABAB ligand on a dose normalized basis.

GABAB receptor [4] = target: T1, GABAB receptor (Rattus norvegicus, UniProt Q9Z0U4); assay: [3H]CGP54626 rat brain GABAB receptor binding assay; conditions: [3H]CGP54626 rat brain binding assay
T1 construct: from tissue; host or cells: rat cerebral cortex membranes
Procedure: An assay using rat cerebral cortex membranes was used to determine the affinity of GABAB receptor ligands for the GABAB receptor.
An assay buffer of 50 mM Tris pH 7.4 was prepared with 100 μM of isoguvacine, to block GABAA interactions. The assay buffer with isoguvacine was used for dilution of membranes, compounds, and radiolabel.
Rat cerebral cortex membranes were diluted in assay buffer at 1 mg/mL and aliquoted into a 96-well plate at 900 μL/well. Buffer or test compound were added at 20-times final concentration in the buffer at 50 μL/well. Membranes and test compounds or buffer were incubated for 10 min. at room temperature. Radiolableled [S—(R*,R*)]-[3-[[1-(3,4-dichlorophenyl)ethyl]amino]-2-hydroxypropyl](cyclohexylmethyl) phosphinic acid (CGP54626) was then added at 50 μL/well in the buffer at 1-10 nM concentration in 50 μl. The mixture was incubated for 15 min. at room temperature. The assay mixture was filtered using Brandell filtration apparatus and GFB filters, washed twice with 3 mL of 4° C., 50 mM Tris pH 7.4, buffer without isoguvacine. The filters were then dried at room temperature and the dried filters punched out and placed in individual vials. Three (3) mL of scintillation fluid was added to each vial and the radiolabel counted on the scintillation counter. The inverse amount of radiolabel was indicative of binding of a test compound to the GABAB receptor.

[5] = target: T2, recombinant human GABABR1a2 (Homo sapiens, UniProt Q9UBS5); assay: cAMP assay for determining GABAB receptor agonist activity; type: cell-based; conditions: cells expressing recombinant human GABABR1a2; read-out: cAMP EC50
T2 construct: expressed in transfected cells; host or cells: HEK cells
Procedure: The following procedure was used to determine the level of intracellular cAMP. Recombinant HEK cells expressing the GABAB R1a2 receptor were used in the experiments. cAMP levels were measured using a cAMP XS^+ HitHunter™ Chemiluminescence Assay Kit (90-0075-02, GE Healthcare Biosciences Corp.). Cells were seeded overnight at 5,000 cells per well, in black, clear bottom 96-well plates. The following morning, cells were washed twice with 100 μL PBS per well. Forskolin was weighed out and dissolved in DMSO to a final concentration 100 mM. One-hundred (100) μM forskolin solutions were prepared in PBS with and without test compound at 1-times final concentration. Thirty (30) μL of the test solutions were added to the wells and incubated for 1 h at room temperature. The cAMP concentration was determined according to the protocol described in the cAMP assay kit, maintaining the plate at room temperature and in the dark. Two hours after the final kit reagent was added, the plate bottom was covered with black tape, and the plate read using a 1450 MicroBeta Trilux microplate scintillation and luminescence counter (PerkinElmer, Waltham, Mass.). Each well was read for 6 seconds. The untransformed data was then analyzed.

[6] = target: T2, recombinant human GABABR1a2; assay: Ca2+ assay for determining GABAB receptor agonist activity; type: cell-based; conditions: cells expressing recombinant human GABABR1a2
Procedure: The following procedure was used to determine the GABAB receptor agonist activity of a compound as reflected by activation of Ca^2+ signaling. HEK TREx cells expressing GABABR1a2 under tetracycline induction control, and Gqi chimeric protein (expressed constitutively), allowing GABABR coupling through the Ca^2+ signaling pathway were used in the experiments.
Cells were seeded in media containing tetracycline overnight at 100,000 cells/well, in black, clear-bottom, 96-well plates. The following morning, cells were washed twice with 100 μL HBSS buffer per well. Fluorescent Ca^2+ indicator dye was prepared using the materials and procedure described in the F362056 Fluo-4 NW Calcium Assay Kit (Invitrogen, Carlsbad, Calif.). Ten (10) mL of kit buffer and 100 μl of kit Probenecid were added to individual kit dye vials, and rolled back and forth several times to dissolve the dye. Cells were then loaded into the dye solution at 50 μL per well. The cells and dye were incubated for 30 min at 37° C., and then incubated for an additional 30 min at room temperature in the dark. Test compounds are dissolved in HBSS buffer at twice final concentration. Duplicate wells were used for each unique condition. Solution containing the test compound was added to the wells using a FLEXStation II (Molecular Devices, Sunnyvale, Calif.). Using the instrument in kinetic mode in which each well was read every 2 sec over a total collection time of 50 sec fluorescence was measured using an excitation wavelength 494 nm and a detection wavelength of 516 nm. A normalized fluorescence value for each well was calculated using the following procedure. The difference in fluorescence at 35 sec (usually representing maximal response) and at 15 sec (a time point prior to addition of test compounds) was calculated, divided by the fluorescence at 15 sec, and the result multiplied by 100. The final value represented the percent increase in fluorescence relative to the fluorescence at 15 sec. Data was analyzed using standard procedures.

GABAB receptor [7] = target: GABAB receptor (Homo sapiens, UniProt Q9UBS5); assay: GABAB receptor agonist or partial agonist activity by binding, electrophysiology, cAMP and/or Ca2+ assay methods (Examples 83-86); type: cell-based
In short: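 Binding: rat cortex membranes in 50 mM Tris pH 7.4 with 100 μM isoguvacine were preincubated 10 min at RT with compound, then radiolabeled CGP54626 (1-10 nM) was added; filtered and scintillation-counted. cAMP: GABAB R1a2 HEK cells, 1 h RT with 100 μM forskolin, chemiluminescence.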

T2 sequence (Q9UBS5 15-961 limits assumed): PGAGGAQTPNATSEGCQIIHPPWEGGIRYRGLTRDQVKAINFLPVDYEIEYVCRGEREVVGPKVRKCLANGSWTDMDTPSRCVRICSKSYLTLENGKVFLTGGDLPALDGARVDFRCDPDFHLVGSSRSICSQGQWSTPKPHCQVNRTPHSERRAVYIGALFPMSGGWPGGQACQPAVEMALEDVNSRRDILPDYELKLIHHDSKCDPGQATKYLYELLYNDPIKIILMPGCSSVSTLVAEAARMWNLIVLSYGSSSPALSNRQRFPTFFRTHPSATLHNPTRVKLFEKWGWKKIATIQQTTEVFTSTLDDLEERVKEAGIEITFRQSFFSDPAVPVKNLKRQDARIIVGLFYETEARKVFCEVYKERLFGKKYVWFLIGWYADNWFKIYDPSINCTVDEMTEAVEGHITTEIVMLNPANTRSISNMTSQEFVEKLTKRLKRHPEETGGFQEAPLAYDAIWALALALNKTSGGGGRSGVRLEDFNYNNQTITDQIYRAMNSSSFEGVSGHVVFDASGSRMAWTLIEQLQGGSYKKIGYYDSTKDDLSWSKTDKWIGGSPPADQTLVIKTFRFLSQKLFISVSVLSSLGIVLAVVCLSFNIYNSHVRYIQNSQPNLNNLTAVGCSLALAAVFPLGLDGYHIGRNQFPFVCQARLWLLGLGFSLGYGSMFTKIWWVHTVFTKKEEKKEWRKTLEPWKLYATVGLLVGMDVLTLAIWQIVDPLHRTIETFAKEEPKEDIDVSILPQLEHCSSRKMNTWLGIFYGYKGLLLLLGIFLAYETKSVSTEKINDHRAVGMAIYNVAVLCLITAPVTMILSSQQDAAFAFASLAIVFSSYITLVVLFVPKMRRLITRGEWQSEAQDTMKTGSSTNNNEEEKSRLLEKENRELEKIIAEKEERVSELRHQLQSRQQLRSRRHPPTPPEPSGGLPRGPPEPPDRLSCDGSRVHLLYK
T2 sequence (O75899 42-941 partner): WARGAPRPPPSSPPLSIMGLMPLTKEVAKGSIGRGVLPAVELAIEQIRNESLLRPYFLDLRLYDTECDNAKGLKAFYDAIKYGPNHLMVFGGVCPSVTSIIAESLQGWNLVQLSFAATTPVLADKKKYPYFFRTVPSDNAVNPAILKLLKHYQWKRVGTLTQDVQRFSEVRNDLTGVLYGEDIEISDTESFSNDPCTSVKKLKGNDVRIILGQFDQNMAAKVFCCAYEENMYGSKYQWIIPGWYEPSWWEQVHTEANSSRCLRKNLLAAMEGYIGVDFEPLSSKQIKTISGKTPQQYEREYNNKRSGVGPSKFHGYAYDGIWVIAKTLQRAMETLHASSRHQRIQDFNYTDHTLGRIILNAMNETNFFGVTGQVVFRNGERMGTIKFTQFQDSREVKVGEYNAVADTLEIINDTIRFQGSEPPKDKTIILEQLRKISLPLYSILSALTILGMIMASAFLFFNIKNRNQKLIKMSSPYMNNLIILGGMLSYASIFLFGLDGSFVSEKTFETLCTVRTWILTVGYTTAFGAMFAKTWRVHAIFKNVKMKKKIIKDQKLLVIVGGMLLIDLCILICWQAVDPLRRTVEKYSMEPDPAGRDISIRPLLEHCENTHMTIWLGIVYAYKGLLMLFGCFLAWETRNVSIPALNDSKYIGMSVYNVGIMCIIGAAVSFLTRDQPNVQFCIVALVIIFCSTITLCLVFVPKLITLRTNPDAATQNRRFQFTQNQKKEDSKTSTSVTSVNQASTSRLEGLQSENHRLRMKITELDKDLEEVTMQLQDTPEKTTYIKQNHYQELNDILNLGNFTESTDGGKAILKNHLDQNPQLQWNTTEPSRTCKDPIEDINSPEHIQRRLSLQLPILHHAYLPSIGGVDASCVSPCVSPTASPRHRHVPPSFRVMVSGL
T1 sequence (Q9Z0U4 20-960): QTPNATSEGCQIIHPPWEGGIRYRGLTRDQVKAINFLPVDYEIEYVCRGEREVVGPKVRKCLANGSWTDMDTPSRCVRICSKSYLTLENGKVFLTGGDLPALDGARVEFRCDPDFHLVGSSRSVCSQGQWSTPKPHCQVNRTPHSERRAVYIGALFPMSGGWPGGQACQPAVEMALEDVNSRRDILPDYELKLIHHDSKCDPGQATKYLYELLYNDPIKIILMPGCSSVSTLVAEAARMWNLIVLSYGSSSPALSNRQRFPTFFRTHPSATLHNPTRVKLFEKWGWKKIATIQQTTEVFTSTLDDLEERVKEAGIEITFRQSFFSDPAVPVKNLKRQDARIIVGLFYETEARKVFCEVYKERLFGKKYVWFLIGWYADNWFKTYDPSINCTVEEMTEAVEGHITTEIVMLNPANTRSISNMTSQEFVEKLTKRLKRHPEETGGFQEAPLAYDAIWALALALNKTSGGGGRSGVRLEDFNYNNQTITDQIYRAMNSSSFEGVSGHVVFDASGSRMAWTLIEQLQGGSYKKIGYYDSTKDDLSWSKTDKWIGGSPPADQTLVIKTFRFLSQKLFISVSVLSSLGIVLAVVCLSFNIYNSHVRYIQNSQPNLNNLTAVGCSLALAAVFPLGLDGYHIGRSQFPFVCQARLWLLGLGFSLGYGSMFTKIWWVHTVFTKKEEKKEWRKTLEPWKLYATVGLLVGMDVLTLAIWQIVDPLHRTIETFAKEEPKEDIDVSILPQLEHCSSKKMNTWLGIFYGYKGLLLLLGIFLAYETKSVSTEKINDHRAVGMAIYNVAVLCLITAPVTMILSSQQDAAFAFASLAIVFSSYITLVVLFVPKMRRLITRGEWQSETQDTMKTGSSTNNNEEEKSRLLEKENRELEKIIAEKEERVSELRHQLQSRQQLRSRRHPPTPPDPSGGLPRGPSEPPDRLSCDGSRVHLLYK
T1 sequence (O88871 41-940 partner): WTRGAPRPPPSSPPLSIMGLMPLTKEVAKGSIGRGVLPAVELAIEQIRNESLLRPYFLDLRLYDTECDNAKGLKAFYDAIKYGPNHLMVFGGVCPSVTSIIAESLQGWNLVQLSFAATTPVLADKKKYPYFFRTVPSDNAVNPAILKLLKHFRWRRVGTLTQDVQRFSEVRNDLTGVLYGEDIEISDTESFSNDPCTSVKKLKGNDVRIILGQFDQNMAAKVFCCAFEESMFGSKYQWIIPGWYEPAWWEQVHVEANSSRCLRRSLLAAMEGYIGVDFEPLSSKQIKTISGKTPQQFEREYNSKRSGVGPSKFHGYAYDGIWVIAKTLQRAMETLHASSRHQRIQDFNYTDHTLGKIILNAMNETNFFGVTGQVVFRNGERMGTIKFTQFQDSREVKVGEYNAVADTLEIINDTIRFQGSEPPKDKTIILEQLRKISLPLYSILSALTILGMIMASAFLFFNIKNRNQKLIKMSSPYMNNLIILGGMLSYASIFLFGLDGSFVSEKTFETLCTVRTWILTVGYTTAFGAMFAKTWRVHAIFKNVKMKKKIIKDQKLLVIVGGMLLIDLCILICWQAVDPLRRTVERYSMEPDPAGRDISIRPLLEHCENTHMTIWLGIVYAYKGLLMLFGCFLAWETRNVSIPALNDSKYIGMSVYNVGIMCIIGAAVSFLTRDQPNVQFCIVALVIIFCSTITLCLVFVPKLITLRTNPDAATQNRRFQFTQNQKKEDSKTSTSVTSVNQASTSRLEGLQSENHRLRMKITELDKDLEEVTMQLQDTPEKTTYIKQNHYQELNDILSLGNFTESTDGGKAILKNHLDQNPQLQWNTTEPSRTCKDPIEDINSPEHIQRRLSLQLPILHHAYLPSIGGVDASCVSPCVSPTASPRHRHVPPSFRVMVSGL
GABAB receptor (Homo sapiens, UniProt Q9UBS5), sequence (Q9UBS5 20-961): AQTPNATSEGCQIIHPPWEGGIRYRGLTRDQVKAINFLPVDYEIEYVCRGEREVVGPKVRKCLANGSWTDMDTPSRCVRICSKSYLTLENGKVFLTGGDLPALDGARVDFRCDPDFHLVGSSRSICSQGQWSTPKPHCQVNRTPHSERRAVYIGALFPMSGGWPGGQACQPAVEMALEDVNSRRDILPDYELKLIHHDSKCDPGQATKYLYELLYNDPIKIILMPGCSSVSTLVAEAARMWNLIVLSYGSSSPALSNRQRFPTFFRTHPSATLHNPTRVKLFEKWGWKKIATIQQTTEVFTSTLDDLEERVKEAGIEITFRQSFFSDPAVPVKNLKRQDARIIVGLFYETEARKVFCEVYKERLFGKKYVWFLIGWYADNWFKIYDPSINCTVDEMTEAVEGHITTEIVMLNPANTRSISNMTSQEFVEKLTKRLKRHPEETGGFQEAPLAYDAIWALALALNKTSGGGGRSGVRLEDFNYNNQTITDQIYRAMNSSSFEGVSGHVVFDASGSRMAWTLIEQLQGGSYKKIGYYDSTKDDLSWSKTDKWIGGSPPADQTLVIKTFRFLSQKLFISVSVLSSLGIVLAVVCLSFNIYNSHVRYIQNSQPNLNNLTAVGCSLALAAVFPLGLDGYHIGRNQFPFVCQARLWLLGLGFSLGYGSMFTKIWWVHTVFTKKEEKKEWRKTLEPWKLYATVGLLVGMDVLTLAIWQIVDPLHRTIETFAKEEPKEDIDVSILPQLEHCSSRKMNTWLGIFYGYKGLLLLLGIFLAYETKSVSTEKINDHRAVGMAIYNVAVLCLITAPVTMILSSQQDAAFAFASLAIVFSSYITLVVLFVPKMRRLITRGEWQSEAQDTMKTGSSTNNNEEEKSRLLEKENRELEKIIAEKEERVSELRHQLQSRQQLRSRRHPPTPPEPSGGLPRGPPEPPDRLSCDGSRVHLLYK
GABAB receptor (Homo sapiens, UniProt Q9UBS5), sequence (O75899 42-941 partner): as the sequence (O75899 42-941 partner) above

SMILES | oral bioavailability (F %) [3] | pIC50 (GABAB receptor [4]) | pEC50 [5] | pEC50 [6] | GABAB receptor agonist or partial agonist activity (GABAB receptor [7]) | also measured
NCC(CC(=O)O)c1ccc(Cl)cc1 (stereo not shown) [baclofen] |  |  |  |  |  | number of emetic episodes [1]: about 13; hypothermia ([2]; GABAB(1)+/- and GABAB(1)+/+ but not GABAB(1)-/- mice): marked hypothermia; time after administration at which hypothermia reaches its minimum [2]: 60 to 80 min
Cl.NC(=O)CC[C@H](N)C(=O)NC[C@H](CC(=O)O)c1ccc(Cl)c(-c2ccc(C(=O)O)s2)c1 [Example 80] | greater than 10% |  |  |  |  | 
C[C@H](N)C(=O)NC[C@H](CC(=O)O)c1ccc(Cl)c(OCc2ccncc2)c1.Cl [Example 73, (3R)-4-((2S)-2-Aminopropanoylamino)-3-[4-chloro-3-(4-pyridylmethoxy)phenyl]butanoic acid hydrochloride] | greater than 10% |  |  |  |  | 
Cl.N#Cc1cc(F)cc(-c2cc([C@H](CN)CC(=O)O)ccc2Cl)c1 [(3R)-4-amino-3-[4-chloro-3-(3-cyano-5-fluorophenyl)phenyl]butanoic acid hydrochloride] |  | > 4.60 | > 7.00 | > 6.15 | agonist or partial agonist activity | 
N#Cc1ccc(-c2cc([C@H](CN)CC(=O)O)ccc2Cl)s1 [Example 29, (3R)-4-Amino-3-[4-chloro-3-(5-cyano-2-thienyl))phenyl]butanoic acid hydrochloride] |  | > 4.60 | > 7.00 | > 6.15 | agonist or partial agonist activity | 
